A short description of data set [1]: Saturation (thermodynamic) solubility in buffer, FaSSIF, FeSSIF. The class given is physicochemical. To be noted: thermodynamic from solid. As for the experimental part: Saturation Solubility (= Thermodynamic Solubility)
Approximately 8.6 mg test compound per milliliter solvent/vehicle was stirred in HPLC vials (9 × 12 × 32 mm, Waters) at 350 rpm for 15 h. Samples of 10 µL each were taken and microscopically examined for presence of solid particles. If the active pharmacological ingredient (API) dissolved completely, more solid API was added, and stirring was continued for another 15 h. Addition of solid material was repeated up to 96 h or until residual solid particles could be detected. Samples of 0.5 mL were then transferred to Eppendorf Ultrafree filter tubes (Filter: PVDF 0.22 µm) and centrifuged at 14,500 rpm for 10 min. The filtrates were diluted in ethanol and analyzed for content by UPLC. The measurements were also conducted in 0.05 M aqueous phosphate buffer, fasted (FaSSIF), and fed (FeSSIF) simulated gastrointestinal fluid. […]

A further data set addresses CYP3A4 (Homo sapiens, UniProt P08684). The data set is described as follows: Cytochrome P450 inhibition assay, CYP3A4. Type of data set: in vitro ADME.
A further data set concerns the target CYP2D6 (Homo sapiens, UniProt P10635). Nature of the data set: Cytochrome P450 inhibition assay, CYP2D6. Type of data set: in vitro ADME.
A further data set addresses T1, human CB1R (Homo sapiens, UniProt P21554).
T1 construct: host or cells: CHO

Data set [2] has as its target T2, human CB2R (Homo sapiens, UniProt P34972).
T2 construct: bgal (beta-galactosidase fragment of the PathHunter system, named only in the cell line's name); host or cells: CHO-K1 (CHOK1hCB2_bgal)
To be noted: cited from earlier work; for EC50: read-out: hCB2R: cAMP EC50.

Data set [3] concerns the target T2, human CB2R. To be noted: cited from earlier work; for EC50: read-out: hCB2R: beta arrestin EC50.
For data set [4] the following is noted: cited from earlier work; for Hepatocyte Clearance mouse: mouse hepatocytes, * previously published.
In data set [5] the test system is leukocyte-endothelial interactions in the iridial microcirculation. The data set is described as follows: Endotoxin-induced uveitis (EIU), intravital microscopy of iridial microcirculation, WT mice. The class given is in vivo, BALB/c mice. To be noted: for adherent leukocytes in the iridial microcirculation: WT mice; for Rolling leukocytes per min: LPS + topical 1.5% w/v, mean ± SD, n = 6. The method, then: EIU was induced in BALB/c mice using an intravitreal injection of LPS (2 μL; 125 ng/μL; E. coli 0111:B4 L084M4118V; Sigma-Aldrich, Oakville, ON, Canada) in saline,. Animals were anesthetized with isoflurane (4% induction, 2% maintenance), and were injected intravitreally through the pars plana with sterile saline (control) or LPS solution using a 30G needle and Hamilton syringe (Hamilton Company, Reno, NV, USA) with the assistance of a WILD M37 dissecting microscope (Leitz Canada, Kitchener, ON, Canada). The puncture wound was glued shut with 3M Vetbond Tissue Adhesive (3M Animal Products, St. Paul, MN, USA), and animals were allowed to recover.
IVM was conducted as previously described in Toguri et al. (2014). The iridial microcirculation was imaged 6 h after induction of EIU. Animals were anesthetized with pentobarbital (i.p., 54 mg/kg). Fifteen minutes before initiating IVM, 0.05% Rhodamine 6G (1.5 mL/kg; Sigma-Aldrich) was injected intravenously (i.v.) to visualize leukocytes within the vasculature, while 5% fluorescein isothiocyanate (FITC) conjugated albumin (i.v., 1 mL/kg; Sigma-Aldrich) was used to visualize blood flow. The iridial microcirculation was observed using an Olympus OV100 Small Animal Imaging System (Olympus, Tokyo, Japan), which contains an MT-20 light source, fluorescence excitation from a xenon lamp (150 W) and an excitation filter for rhodamine-6G (excitation 515–560 nm, emission 590 nm). Images were captured in real-time by a black and white DP70 CCD C-mount camera and digitally recorded using HCImage software (Hamamatsu, Herrsching, Germany).
During IVM animals were placed on a heating pad in a stereotactic frame, and Tear-Gel® (Novartis Pharmaceuticals Canada Inc., Dorval, QC, Canada) was applied to their cornea. The iris was divided into four equal quadrants by drawing two superficial lines on the cornea, lengthwise and widthwise. IVM was carried out in each of these quadrants. Two to four videos of each quadrant were recorded for 30 s each. Videos were analyzed off-line without knowledge of the treatment groups. […] Using ImageJ software (National Institute of Health, Bethesda, MD, USA) the number of adherent leukocytes within each vessel segment was calculated by measuring the diameter and length of vessel segment studied, assuming a cylindrical geometry of blood vessels. Adherent leukocytes were expressed as number of cells per mm^2 of endothelial surface. Rolling leukocytes were classified as cells that moved along the endothelium and crossed a predetermined cross-sectional line of the venule. The number of rolling leukocytes was counted for 30 s and used to calculate the number of rolling leukocytes per min. IVM was conducted 6 h after induction of EIU.
RO6871304, RO6871085, or RO6851228 were applied topically on the left eye (1.5% w/v; 5 μL/animal)) directly after injection of LPS in the same eye. Control animals received vehicle (Tocrisolve) (5 μL/animal) only. HU910 was dissolved for i.v. administration in mixed micelles.

On the set-up of data set [6]: method as in earlier work. To be noted: mouse, i.v., 0.5-1 mg/kg; * previously published; cited from earlier work.
The subject of the next data set is mouse P-gp. To be noted: cited from earlier work; for P-glycoprotein-Mediated Efflux Extraction Ratio mouse: mouse P-gp, * previously published.
The conditions of data set [7]: * previously published; cited from earlier work.
The conditions of data set [8]: human and mouse liver microsomes; underlying data previously published; cited from earlier work.
The mark [9] stands for this setting: FaSSIF pH 6.5, read-out: Thermodynamic Solubility in FaSSIF (pH 6.5).
[10] abbreviates: FeSSIF pH 5.5, read-out: Thermodynamic Solubility in FeSSIF (pH 5.5).
Setting [11] is: aqueous phosphate buffer pH 6.5, read-out: Thermodynamic Solubility in Aqueous Buffer (pH 6.5).
The mark [12] stands for this setting: relative to 1 µM CP55940, * previously published.
The mark [13] stands for this setting: underlying data previously published.
Setting [14] is: topical 1.5% w/v (5 µL/animal), 6 h after intravitreal LPS, vs LPS + vehicle.
Where [15] appears, read: [3H]-CP55940 displacement; * previously published; read-out: hCB1R: Ki; cited from earlier work.

Values after ≈ are worked out from the molar mass of the structure shown. “Also recorded” adds a separate entry of the source. Like-named read-outs stand apart in the source and are kept apart here. Marks after values point to notes of the source that are not given here.

T2 sequence (P34972 whole entry, the tested form may be a part): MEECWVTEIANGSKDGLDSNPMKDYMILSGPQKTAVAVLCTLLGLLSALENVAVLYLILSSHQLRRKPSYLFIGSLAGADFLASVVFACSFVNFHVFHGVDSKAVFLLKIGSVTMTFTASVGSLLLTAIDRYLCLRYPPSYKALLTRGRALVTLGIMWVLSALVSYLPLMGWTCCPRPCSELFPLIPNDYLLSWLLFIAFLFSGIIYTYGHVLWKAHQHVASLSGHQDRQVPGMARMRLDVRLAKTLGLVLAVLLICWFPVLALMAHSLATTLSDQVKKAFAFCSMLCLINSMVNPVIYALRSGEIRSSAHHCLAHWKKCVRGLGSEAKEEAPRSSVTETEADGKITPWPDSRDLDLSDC
Chain of CYP3A4 (P08684 whole entry): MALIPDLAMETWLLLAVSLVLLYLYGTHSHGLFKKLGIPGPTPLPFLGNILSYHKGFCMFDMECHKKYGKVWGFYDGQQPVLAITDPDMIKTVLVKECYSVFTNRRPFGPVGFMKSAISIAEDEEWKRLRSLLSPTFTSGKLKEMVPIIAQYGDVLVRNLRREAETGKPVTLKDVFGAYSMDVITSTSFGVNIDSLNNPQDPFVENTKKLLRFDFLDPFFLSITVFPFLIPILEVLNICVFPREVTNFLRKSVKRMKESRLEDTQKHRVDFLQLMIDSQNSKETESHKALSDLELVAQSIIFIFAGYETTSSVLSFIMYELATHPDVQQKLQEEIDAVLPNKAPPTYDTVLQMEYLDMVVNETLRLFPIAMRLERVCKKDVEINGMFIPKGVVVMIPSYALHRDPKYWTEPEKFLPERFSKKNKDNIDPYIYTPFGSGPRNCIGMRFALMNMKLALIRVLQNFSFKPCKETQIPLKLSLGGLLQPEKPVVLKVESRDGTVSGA
Chain of CYP2D6 (P10635 whole entry): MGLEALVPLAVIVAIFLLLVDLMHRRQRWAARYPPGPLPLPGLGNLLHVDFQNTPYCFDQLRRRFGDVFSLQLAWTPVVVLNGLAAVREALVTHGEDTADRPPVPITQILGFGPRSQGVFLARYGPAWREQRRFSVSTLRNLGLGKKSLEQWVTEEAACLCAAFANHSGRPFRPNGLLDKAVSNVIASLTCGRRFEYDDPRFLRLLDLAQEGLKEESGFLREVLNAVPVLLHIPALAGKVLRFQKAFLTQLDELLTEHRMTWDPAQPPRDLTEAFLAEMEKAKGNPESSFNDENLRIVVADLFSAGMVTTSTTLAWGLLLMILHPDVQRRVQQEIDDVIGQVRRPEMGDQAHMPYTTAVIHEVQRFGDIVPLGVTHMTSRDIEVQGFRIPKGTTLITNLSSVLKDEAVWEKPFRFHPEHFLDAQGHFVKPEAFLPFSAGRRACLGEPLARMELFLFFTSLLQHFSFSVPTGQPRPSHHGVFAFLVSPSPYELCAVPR
T1 sequence (P21554 whole entry): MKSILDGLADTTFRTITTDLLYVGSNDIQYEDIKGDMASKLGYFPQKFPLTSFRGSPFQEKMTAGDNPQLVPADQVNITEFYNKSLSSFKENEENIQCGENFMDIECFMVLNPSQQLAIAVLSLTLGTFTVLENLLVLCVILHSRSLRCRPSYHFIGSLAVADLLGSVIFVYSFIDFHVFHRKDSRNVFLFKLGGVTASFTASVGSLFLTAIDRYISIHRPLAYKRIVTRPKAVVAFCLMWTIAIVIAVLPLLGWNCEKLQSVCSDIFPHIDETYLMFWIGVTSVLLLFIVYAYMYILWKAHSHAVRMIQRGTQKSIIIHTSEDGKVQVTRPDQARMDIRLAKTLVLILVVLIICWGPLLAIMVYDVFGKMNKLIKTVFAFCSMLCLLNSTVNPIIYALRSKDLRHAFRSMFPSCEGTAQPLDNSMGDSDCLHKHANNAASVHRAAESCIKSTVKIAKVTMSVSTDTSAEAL

Take `CCCCCCC(C)(C)c1cc(OC)c([C@H]2C=C(CO)[C@H]3C[C@@H]2C3(C)C)c(OC)c1` [HU308, {(1S,4S,5S)-4-[2,6-Dimethoxy-4-(2-methyloctan-2-yl)phenyl]-6,6-dimethylbicyclo[3.1.1]hept-2-en-2-yl}methanol, reference compound]: the thermodynamic solubility (as a rule, solubility found after equilibrating the solid with the medium) is 52 µg/mL (≈ 125 µM) in [1] (setting [9]), 60 µg/mL (≈ 145 µM) in data set [1] (setting [10]) and under 1 µg/mL in data set [1] (setting [11]). Moreover, the concentration for half-maximal inhibition (IC50) against CYP3A4 and against CYP2D6 was over 50 µM in each case. Moreover, on human CB1R (read-out: hCB1R: Ki; [3H]-CP55940 displacement; * previously published; cited from earlier work), the Ki (in general, the dissociation constant of the complex between target and ligand, obtained from inhibition or displacement) was 4.6 µM. In addition, at human CB2R [2] (setting [12]), the “hCB2R: cAMP efficacy” value is recorded as 98%. Besides, the “functional behaviour in hCB2R cAMP assay” value on human CB2R [2] (setting [13]) is on record as “full agonists”. Moreover, on human CB2R [3] (* previously published), the “hCB2R: beta arrestin efficacy” value is 107%. The “functional behaviour in hCB2R β-arrestin assay” value on human CB2R [3] (setting [13]) is on record as “full agonist”. The “Hepatocyte Clearance mouse” value in data set [4] is listed as 4.7 μL/min/Mio cells.

Turning to `CCCCCCC(C)(C)c1cc(OC)c(C2=C[C@H]3CC[C@]2(CO)C3(C)C)c(OC)c1` [HU910, {(1S,4R)-2-[2,6-dimethoxy-4-(2-methyloctan-2-yl)phenyl]-7,7-dimethylbicyclo[2.2.1]hept-2-en-1-yl}methanol, reference compound], in data set [5] (3.0 mg/kg i.v. in mixed micelles, 6 h after LPS, vs LPS + vehicle (p < 0.01)), the “adherent leukocytes in the iridial microcirculation” value (shortened to “adherent leukocytes”) is listed as “significantly reduced leukocyte adhesion”. The “adherent leukocytes” value in data set [5] (setting [14]) is “significantly attenuated”. In addition, in data set [1] (setting [9]), the solubility (thermodynamic) came to 59 µg/mL (≈ 142 µM). In data set [1] (setting [10]), the thermodynamic solubility was found to be 128 µg/mL (≈ 309 µM). The thermodynamic solubility in data set [1] (setting [11]) was under 1 µg/mL. Further, the IC50 (as a rule, the midpoint of a concentration-inhibition curve) at CYP3A4 (read-out: IC50 CYP3A4) was found to be 37 µM. At CYP2D6 (read-out: IC50 CYP2D6), the half-maximal inhibitory concentration (IC50) is over 50 µM. Besides, the Ki on human CB1R (setting [15]) was 3.73 µM. On human CB2R [2], the “functional behaviour in hCB2R cAMP assay” value is “full agonists”; the “hCB2R: cAMP efficacy” value is 4, 98 * %; the 50% effective concentration (EC50) (in general, the midpoint of the concentration-response curve) was 0.004 µM. For the same compound, at human CB2R [3], the “functional behaviour in hCB2R β-arrestin assay” value was “full agonist”; the “hCB2R: beta arrestin efficacy” value is recorded as 109, 81 * %; the EC50 is 0.109 µM. For the same compound, in [6], the “AUCINF D” value was 6060 ng·kg·h/mL/mg; the “Clearance (CL)” value is given as 2.8 mL/min/kg; the T1/2 was 7.4 h; the distribution volume (Vss) (as a rule, the apparent volume that relates the amount in the body to the concentration in plasma or blood) is listed as 0.26 L/kg. In addition, the “Hepatocyte Clearance mouse” value in data set [4] was 34 μL/min/Mio cells. Also, in the data set on mouse P-gp, the “P-glycoprotein-Mediated Efflux Extraction Ratio mouse” value is 3.0.

Regarding `CNC(=O)[C@@H](NC(=O)c1cc(OCC2(C)COC2)c(C2CC2)cn1)C(C)(C)C` [RO6851228, 5-Cyclopropyl-N-[(2S)-3,3-dimethyl-1-(methylamino)-1-oxobutan-2-yl]-4-[(3-methyloxetan-3-yl)methoxy]pyridine-2-carboxamide], the “Rolling leukocytes per min” value in data set [5] (6 h after intravitreal LPS) is listed as 0.45 ± 0.47 per min. In addition, the “adherent leukocytes” value in data set [5] (setting [14]) is given as “increased leukocyte-adhesion; also recorded: increases leukocyte adhesion”. Also, the solubility (thermodynamic) in [1] (setting [9]) stood at 421 µg/mL (≈ 1080 µM). Further, the solubility (thermodynamic) in [1] (setting [10]) came to 243 µg/mL (≈ 624 µM). Moreover, in data set [1] (setting [11]), the solubility (thermodynamic) came out at 497 µg/mL (≈ 1280 µM). The half-maximal inhibitory concentration (IC50) on CYP3A4 (read-out: IC50 CYP3A4) is over 50 µM. Besides, the IC50 at CYP2D6 (read-out: IC50 CYP2D6) is over 50 µM. Further, the Ki on human CB1R (setting [15]) was 6.49 µM. On human CB2R [2] (* previously published), the EC50 was 0.026 µM. On human CB2R [2] (functional selectivity, * previously published), the “hCB1R cAMP EC50/hCB2R cAMP EC50” value is listed as >383 *. Moreover, the “hCB2R: cAMP efficacy” value at human CB2R [2] (setting [12]) was −159%. In addition, the “functional behaviour in hCB2R cAMP assay” value on human CB2R [2] (setting [13]) is listed as “inverse agonist”. Moreover, the “LogD (at pH 7.4)” value in [7] is 3.21. Besides, the “clearance in human as well as mouse microsomes (class in words)” value in data set [8] was “low to medium clearances”. Besides, in [6], the “AUCINF D” value is 226 ng·kg·h/mL/mg, the “Clearance (CL)” value is listed as 73.8 mL/min/kg, the T1/2 is recorded as 1.08 h and the distribution volume (Vss) is listed as 3.1 L/kg. In addition, in data set [4], the “Hepatocyte Clearance mouse” value is listed as 46 μL/min/Mio cells. The “P-glycoprotein-Mediated Efflux Extraction Ratio mouse” value with mouse P-gp is listed as 25.1. Besides, the “P-gp substrate, mouse” value in the data set with mouse P-gp (setting [13]) was “strong P-gp substrate”.

As for `CC(C)(C)c1nc(N2CC[C@H](O)C2)c2nnn(Cc3nnnn3C3CC3)c2n1` [RO6871304, (3S)-1-{5-tert-butyl-3-[(1-cyclopropyl-1H-tetrazol-5-yl)methyl]-3H-[1,2, 3]triazolo[4,5-d]pyrimidin-7-yl}pyrrolidin-3-ol], the “Rolling leukocytes per min” value in data set [5] (6 h after intravitreal LPS) came out at 0.05 ± 0.07 per min. In addition, in data set [5] (setting [14]), the “adherent leukocytes” value is listed as “significantly attenuated; also recorded: most efficacious”. The IC50 at CYP3A4 (read-out: IC50 CYP3A4) was over 50 µM. Further, the half-inhibitory concentration (IC50) on CYP2D6 (read-out: IC50 CYP2D6) was over 50 µM. Besides, the Ki at human CB1R (setting [15]) was over 10 µM. Besides, the EC50 on human CB2R [2] (* previously published) was 0.001 µM. Besides, the “hCB2R: cAMP efficacy” value on human CB2R [2] (setting [12]) was 102%. The “functional behaviour in hCB2R cAMP assay” value on human CB2R [2] (setting [13]) is on record as “full agonists”. Also, at human CB2R [3] (* previously published), the “hCB2R: beta arrestin efficacy” value is recorded as 119% and the EC50 is 0.021 µM. For the same compound, the “functional behaviour in hCB2R β-arrestin assay” value on human CB2R [3] (setting [13]) is given as “full agonist”. In addition, the “LogD (at pH 7.4)” value in data set [7] is 2.78. The “clearance in human as well as mouse microsomes (class in words)” value in data set [8] is on record as “low to medium clearances”. Besides, in data set [6], the “Clearance (CL)” value is given as 36.5 mL/min/kg and the Vss was 0.95 L/kg. Also, the “Hepatocyte Clearance mouse” value in data set [4] is given as 140 μL/min/Mio cells. Also, the “clearance in mouse hepatocytes (class in words)” value in data set [4] (setting [13]) is given as “high”.
